Experiments:
UHRF1 = experiment: Protein expression changes by mass spectrometry in H929 cells; assay type: cell-based; conditions: CC-220 0.1 μM, 24 hr vs DMSO
Experimental: FIG. 1A-1F. Down regulation of UHRF1 transcription by IMiDs correlates with drug sensitivity of multiple myeloma. (1A) Volcano plot of protein expression changes determined by mass spectrometry in H929 cells at 24 hr of treatment with CC-220 (0.1 μM) or DMSO control. X axis, Log2fold change (FC); Y axis, significance,-log 10 [p-value]. […] (1B) Volcano plot of gene expression changes determined by Affymetrix microarray in H929 cells treated with POM (1 μM) or DMSO for 24 hr. X axis, Log2fold change (FC); Y axis, significance,-log 10 [p-value], n=2 technical replicates). […] (1C) Western blot analysis protein expression of UHRF1, Ikaros, Aiolos and ZFP91 in H929 cells treated with 1 μM POM for indicated time. (1D) qRT-PCR analysis of UHRF1 gene expression levels in cells as in (1C). Error bars represent the SEM from duplicate measurements. (1E) Western blot analysis protein expression of UHRF1 and indicated proteins in MM cells treated with DMSO (−) or 1 μM POM (+) for 3 days. GAPDH serves as a loading control. (1F) Thymidine incorporation of various MM cell lines treated with indicated dose of POM for 3 days. Error bars represent the SEM from technical replicates. […]

UHRF1 mRNA = experiment: qRT-PCR of UHRF1 gene expression in MM cells; assay type: cell-based; conditions: drug sensitive MM (FIG. 6 title)
Experimental: FIG. 1A-1F. Down regulation of UHRF1 transcription by IMiDs correlates with drug sensitivity of multiple myeloma. (1A) Volcano plot of protein expression changes determined by mass spectrometry in H929 cells at 24 hr of treatment with CC-220 (0.1 μM) or DMSO control. X axis, Log2fold change (FC); Y axis, significance,-log 10 [p-value]. […] (1B) Volcano plot of gene expression changes determined by Affymetrix microarray in H929 cells treated with POM (1 μM) or DMSO for 24 hr. X axis, Log2fold change (FC); Y axis, significance,-log 10 [p-value], n=2 technical replicates). […] (1C) Western blot analysis protein expression of UHRF1, Ikaros, Aiolos and ZFP91 in H929 cells treated with 1 μM POM for indicated time. (1D) qRT-PCR analysis of UHRF1 gene expression levels in cells as in (1C). Error bars represent the SEM from duplicate measurements. (1E) Western blot analysis protein expression of UHRF1 and indicated proteins in MM cells treated with DMSO (−) or 1 μM POM (+) for 3 days. GAPDH serves as a loading control. (1F) Thymidine incorporation of various MM cell lines treated with indicated dose of POM for 3 days. Error bars represent the SEM from technical replicates.
FIG. 2A-2E. UHRF1 expression is positively regulated by Ikaros and Aiolos in IMiDs sensitive MM cells. (2A) Western blot analysis protein expression of UHRF1, Ikaros, Aiolos, ZFP91 and Cereblon expression in control [shLuciferase (shLuc)] and cereblon knockdown (shCRBN) H929 cells treated with DMSO and 1 μM POM for 3 days. GAPDH, loading control. Arrow head, UHRF1. (2B) qRT-PCR analysis of UHRF1 gene expression levels in cells as in (2A). Data was normalized to ACTB. Error bars represent the SEM of technical duplicates. *** P<0.001 (Two-tailed unpaired Student's t-test). (2C) Western blot analysis protein expression of UHRF1, Ikaros and Aiolos in stably transduced H929 cells after Dox induction (0, 10, 50 or 100 ng/ml) for 3 days of non-target shRNA (shNT) or shRNAs targeting Ikaros (shIKZF1) or Aiolos (shIKZF3). (2D) qRT-PCR analysis of UHRF1 gene expression levels in cells as in (2C). Shown are cells induced with Dox (50 ng/ml) for 3 days. Data was normalized to GAPDH. Error bars represent the SEM of technical duplicates. *P<0.05, ** P<0.01, *** P<0.001, **** P<0.0001 (Two-tailed unpaired Student's t-test). (2E) ChIP-qPCR analysis of the occupancy Aiolos (upper panel) or H3K27ac (lower panel) occupancy at transcription star site (TSS), gene body (+7 kb) and gene end (GE) of UHRF1 gene in H929, MM1.S or RPMI 8226 cells treated with DMSO or 1 μM POM for 24 hr. ChIP with control rabbit IgG (IgG) serves as a negative control. Error bars represent the SEM of technical triplicates. * P<0.05, ** P<0.01, **** P<0.0001 (Two-tailed unpaired Student's t-test).
FIG. 6A-6D. […] (6A) Immunocytochemistry assay of UHRF1 in H929 cells treated with DMSO or 1 μM POM for 48 hrs. (6B) qRT-PCR analysis of UHRF1 gene expression levels in indicated MM cells treated with indicated doses of POM for 3 days. Data was normalized to ACTB. Error bars represent the SEM from duplicate measurements. * P<0.05, ** P<0.01, *** P<0.001, **** P<0.0001 (Two-tailed Student's t-test). […]
Total RNA was extracted by RNeasy Mini Kit (Qiagen) and reverse transcribed by iScrip cDNA Synthesis Kit (Bio-rad). Quantitative real-time PCR (qPCR) was conducted on a VillA 7 System using the Power SYBR Green PCR Master Mix (Applied Biosystems). Gene expression values were calculated by normalization to Actb using the comparative CT method.

[1] = tested on: acute myeloid leukemia (AML); conditions: administered alone; cited from earlier work

Row | Compound | UHRF1 protein expression change (mass spectrometry) (UHRF1) | UHRF1 gene expression (UHRF1 mRNA) | response in treating AML at relapse [1]
1 | O=C1CC[C@H](N2Cc3c(OCc4ccc(CN5CCOCC5)cc4)cccc3C2=O)C(=O)N1 [CC-220] | one of the most significantly downregulated proteins | downregulated | 
2 | CT-011: anti-PD-1 antibody, a humanized antibody |  |  | failed to show response
